Laboratory results reported in patent publication US20100160335A1, “PYRIDAZINONE DERIVATIVE AND PDE INHIBITOR CONTAINING THE SAME AS ACTIVE INGREDIENT” (KYORIN PHARMACEUTICAL CO., LTD., priority 2007, published 2010).

Experiments:
[1] = biological target: T1, PDE3A catalytic domain (PDE3Acat) (Homo sapiens, UniProt Q14432); experiment: Phosphodiesterase inhibitory activity, PDE3 ([3H]cAMP, recombinant enzyme); type: biochemical; conditions: 30° C., 20 minutes, read-out: IC50(μmol/L) PDE3
T1 construct: made in house; host or cells: Sf9 insect cells (baculovirus, Bac-to-Bac / Gateway)

PDE4Bcat = biological target: T2, PDE4Bcat (Homo sapiens, UniProt Q07343); experiment: Phosphodiesterase inhibitory activity, PDE4 ([3H]cAMP, recombinant enzyme); type: biochemical; conditions: 30° C., 20 minutes, read-out: IC50(μmol/L) PDE4
T2 construct: made in house; host or cells: Sf9 insect cells (baculovirus, Bac-to-Bac / Gateway)

[2] = tested on: histamine-induced bronchoconstriction in guinea pigs; experiment: Histamine-induced bronchoconstriction reaction in guinea pigs; type: in vivo; conditions: guinea pig, measured 30 seconds after administration; for inhibition in vivo at 0.1 mg/kg / inhibition in vivo at 0.3 mg/kg: Cavia porcellus, iv, 0.5 min, read-out: Inhibition rate (histamine-induced bronchoconstriction); for inhibition in vivo at 0.1 mg/kg: compound 0.1 mg/kg, i.v. (values in [ ])
Protocol: Guinea pigs were anesthetized with pentobarbital (30 mg/kg, i.p.). A cannula for intravenous administration was inserted into the left external jugular vein, a cannula for collecting blood and measuring blood pressure was inserted into the right internal carotid artery, and a tracheal cannula was inserted into the trachea. The guinea pigs were maintained on artificial respiration under the conditions of 60 times/min and 10 mL/kg/stroke. The airflow from the side branch of the tracheal cannula was measured by a bronchospasm transducer (Ugo-Basile) and recorded on a computer via Power Lab (ADInstruments Japan). The guinea pigs were immobilized with gallamine (10 mg/kg, i.v.), and histamine (12.5 μg/kg, i.v.) was administered at 10-minute intervals. After the histamine-induced bronchoconstriction became stable, the compound (0.3 mg/kg, i.v.) was administered. The histamine-induced bronchoconstriction reaction was measured 30 seconds after the compound administration to examine the bronchoconstriction inhibitory activity of the compound. The bronchoconstriction was recorded as the airflow value, and the results were represented by the ratio of the maximum value of the histamine- induced airflow 30 seconds after the administration to the maximum value of the airflow before the administration. Also, the test compounds dissolved in DMSO were used. Further, the indications were as follows: inhibition rate≧90% (+++), 90%>inhibition rate≧80% (++), and 80%>inhibition rate≧70% (+). [ ] means the results in the case of 0.1 mg/kg, i.v.

T2 sequence (Q07343 330-659 limits assumed): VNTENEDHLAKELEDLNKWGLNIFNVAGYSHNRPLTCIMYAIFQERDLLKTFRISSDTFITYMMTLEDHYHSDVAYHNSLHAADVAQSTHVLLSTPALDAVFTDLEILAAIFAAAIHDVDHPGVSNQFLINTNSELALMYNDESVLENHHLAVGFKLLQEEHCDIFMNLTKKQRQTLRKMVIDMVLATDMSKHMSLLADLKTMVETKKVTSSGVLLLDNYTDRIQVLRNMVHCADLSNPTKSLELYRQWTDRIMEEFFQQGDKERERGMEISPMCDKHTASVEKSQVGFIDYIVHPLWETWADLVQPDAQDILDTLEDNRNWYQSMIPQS
T1 sequence (Q14432 674-1093 limits assumed): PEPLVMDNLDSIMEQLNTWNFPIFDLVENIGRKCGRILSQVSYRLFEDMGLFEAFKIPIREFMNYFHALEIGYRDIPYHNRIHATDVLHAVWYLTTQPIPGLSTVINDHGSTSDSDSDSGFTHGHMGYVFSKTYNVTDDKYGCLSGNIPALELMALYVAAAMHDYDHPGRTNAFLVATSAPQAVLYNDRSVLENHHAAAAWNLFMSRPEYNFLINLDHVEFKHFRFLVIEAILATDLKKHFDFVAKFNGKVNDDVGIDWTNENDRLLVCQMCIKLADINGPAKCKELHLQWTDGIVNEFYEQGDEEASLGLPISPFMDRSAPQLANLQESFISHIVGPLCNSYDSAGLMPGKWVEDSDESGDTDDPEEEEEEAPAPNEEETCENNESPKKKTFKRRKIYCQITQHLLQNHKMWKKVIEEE

| IC50 [1] [µmol/L] | IC50 (PDE4Bcat) [µmol/L] | SMILES | inhibition in vivo at 0.1 mg/kg [2] [%] | inhibition in vivo at 0.3 mg/kg ([2]; compound 0.3 mg/kg, i.v.) [%] | Inhibition rate (histamine-induced bronchoconstriction) ([2]; compound 0.3 mg/kg, i.v.) |
| --- | --- | --- | --- | --- | --- |
| < 0.1 | 0.1 to 1 | COc1ccc(C2=NN(CCCCOc3ccc(C4=NNC(=O)CC4C)cc3)C(=O)CC2C)c2cccnc12 (stereo not drawn) [Example 316, 6-(8-Methoxyquinolin-5-yl)-5-methyl-2-[4-[4-(4-methyl-6-oxo-1,4,5,6-tetrahydropyridazin-3-yl)phenoxy]butyl]-4,5-dihydro-2H-pyridazin-3-one] | ≥ 90 |  |  |
| < 0.1 | < 0.1 | COc1ccc(-c2ccc(=O)n(CCCCOc3ccc(C4=NNC(=O)CC4C)c(F)c3F)n2)c2ccc(C)nc12 (stereo not drawn) [Example 273, 2-[4-[2,3-Difluoro-4-(4-methyl-6-oxo-1,4,5,6-tetrahydropyridazin-3-yl)phenoxy]butyl]-6-(8-methoxy-2-methylquinolin-5-yl)-2H-pyridazin-3-one] |  | ≥ 90 |  |
| 1 to 10 | 0.1 to 1 | CCc1ccc2c(C3=NN(CCCCOc4ccc(C5=NNC(=O)CC5)cc4OC)C(=O)CC3C)ccc(OC)c2n1 (stereo not drawn) [Example 297, 6-(2-Ethyl-8-methoxyquinolin-5-yl)-5-methyl-2-[4-[2-methoxy-4-(6-oxo-1,4,5,6-tetrahydropyridazin-3-yl)phenoxy]butyl]-4,5-dihydro-2H-pyridazin-3-one] |  | ≥ 90 |  |
| 1 to 10 | 0.1 to 1 | CCc1ccc2c(C3=NN(CCCOc4ccc(C5=NNC(=O)CC5C)cc4)C(=O)CC3C)ccc(OC)c2n1 (stereo not drawn) [Example 292] |  | 80 to 90 |  |
| 0.1 to 1 | 0.1 to 1 | CCc1ccc2c(-c3ccc(=O)n(CCCCOc4ccc(C5=NNC(=O)CC5C)cc4OC)n3)ccc(OC)c2n1 (stereo not drawn) [Example 288, 6-(2-Ethyl-8-methoxyquinolin-5-yl)-2-[4-[2-methoxy-4-(4-methyl-6-oxo-1,4,5,6-tetrahydropyridazin-3-yl)phenoxy]butyl]-2H-pyridazin-3-one] |  | 80 to 90 |  |
| < 0.1 | 1 to 10 | COc1ccc(-c2ccc(=O)n(CCCCOc3ccc(C4=NNC(=O)CC4C)c(F)c3F)n2)c2nc(C(F)(F)F)nn12 (stereo not drawn) [Example 304, 2-[4-[2,3-Difluoro-4-(4-methyl-6-oxo-1,4,5,6-tetrahydropyridazin-3-yl)phenoxy]butyl]-6-(5-methoxy-2-trifluoromethyl-[1,2,4]triazolo [1,5-a]pyridin-8-yl)-2H-pyridazin-3-one] |  | ≥ 90 |  |
| 0.1 to 1 | 1 to 10 | COc1ccc(-c2ccc(=O)n(CCCCOc3ccc(C4=NNC(=O)CC4)c(F)c3F)n2)c2nc(C(F)(F)F)nn12 [Example 305, 2-[4-[2,3-Difluoro-4-(6-oxo-1,4,5,6-tetrahydropyridazin-3-yl)phenoxy]butyl]-6-(5-methoxy-2-trifluoromethyl-[1,2,4]triazolo[1,5-a]pyridin-8-yl)-2H-pyridazin-3-one] |  | ≥ 90 |  |
| 1 to 10 | 0.1 to 1 | CCc1ccc2c(-c3ccc(=O)n(CCCCOc4ccc(C5=NNC(=O)CC5)cc4OC)n3)ccc(OC)c2n1 [Example 291, 6-(2-Ethyl-8-methoxyquinolin-5-yl)-2-[4-[2-methoxy-4-(6-oxo-1,4,5,6-tetrahydropyridazin-3-yl)phenoxy]butyl]-2H-pyridazin-3-one] |  | 70 to 80 |  |

The next lines start with the molecule.

| SMILES | IC50 [1] [µmol/L] | IC50 (PDE4Bcat) [µmol/L] | inhibition in vivo at 0.1 mg/kg [2] [%] | inhibition in vivo at 0.3 mg/kg ([2]; compound 0.3 mg/kg, i.v.) [%] | Inhibition rate (histamine-induced bronchoconstriction) ([2]; compound 0.3 mg/kg, i.v.) |
| --- | --- | --- | --- | --- | --- |
| CCc1ccc2c(C3=NN(CCCCOc4ccc(C5=NNC(=O)CC5C)c(F)c4F)C(=O)CC3C)ccc(OC)c2n1 (stereo not drawn) [Example 295, 6-(2-Ethyl-8-methoxyquinolin-5-yl)-5-methyl-2-[4-[2,3-difluoro-4-(4-methyl-6-oxo-1,4,5,6-tetrahydropyridazin-3-yl)phenoxy]butyl]-4,5-dihydro-2H-pyridazin-3-one] | < 0.1 | < 0.1 | 80 to 90 |  |  |
| CCc1ccc2c(C3=NN(CCCCOc4ccc(C5=NNC(=O)CC5C)cc4OC)C(=O)CC3C)ccc(OC)c2n1 (stereo not drawn) [Example 293, 6-(2-Ethyl-8-methoxyquinolin-5-yl)-5-methyl-2-[4-[2-methoxy-4-(4-methyl-6-oxo-1,4,5,6-tetrahydropyridazin-3-yl)phenoxy]butyl]-4,5-dihydro-2H-pyridazin-3-one] | 0.1 to 1 | 0.1 to 1 | 70 to 80 |  |  |
| COc1ccc(-c2ccc(=O)n(CCCCOc3ccc(C4=NNC(=O)C4(C)C)c(F)c3F)n2)c2nc(C(F)(F)F)[nH]c12 [Example 277, 2-[4-[2,3-Difluoro-4-(4,4-dimethyl-5-oxo-4,5-dihydro-1H-pyrazol-3-yl)phenoxy]butyl]-6-(4-methoxy-2-trifluoromethyl-1H-benzimidazol-7-yl)-2H-pyridazin-3-one] | < 0.1 | 1 to 10 |  | 80 to 90 |  |
| CCc1ccc2c(C3=NN(CCCCOc4ccc(C5=NNC(=O)CC5C)cc4)C(=O)CC3C)ccc(OC)c2n1 (single isomer, unassigned) [Example 342, 6-(2-Ethyl-8-methoxyquinolin-5-yl)-5-methyl-2-[4-[4-(4-methyl-6-oxo-1,4,5,6-tetrahydropyridazin-3-yl)phenoxy]butyl]-4,5-dihydro-2H-pyridazin-3-one] | < 0.1 | 0.1 to 1 |  |  | +++ (inhibition rate≧90% (+++)) |
| CCc1ccc2c(-c3ccc(=O)n(CCCCOc4ccc(C5=NNC(=O)CC5C)cc4F)n3)ccc(OC)c2n1 (stereo not drawn) [Example 287, 6-(2-Ethyl-8-methoxyquinolin-5-yl)-2-[4-[2-fluoro-4-(4-methyl-6-oxo-1,4,5,6-tetrahydropyridazin-3-yl)phenoxy]butyl]-2H-pyridazin-3-one] | < 0.1 | < 0.1 |  | ≥ 90 |  |
| CCc1ccc2c(C3=NN(CCCCOc4ccc(C5=NNC(=O)C5(C)C)cc4OC)C(=O)CC3C)ccc(OC)c2n1 (stereo not drawn) [Example 301, 6-(2-Ethyl-8-methoxyquinolin-5-yl)-5-methyl-2-[4-[2-methoxy-4-(4,4-dimethyl-5-oxo-4,5-dihydro-1H-pyrazol-3-yl)phenoxy]butyl]-4,5-dihydro-2H-pyridazin-3-one] | ≥ 10 | 0.1 to 1 |  | 80 to 90 |  |
| CCc1ccc2c(C3=NN(CCCCOc4ccc(C5=NNC(=O)CC5)cc4)C(=O)CC3C)ccc(OC)c2n1 (stereo not drawn) [Example 296, 6-(2-Ethyl-8-methoxyquinolin-5-yl)-5-methyl-2-[4-[4-(6-oxo-1,4,5,6-tetrahydropyridazin-3-yl)phenoxy]butyl]-4,5-dihydro-2H-pyridazin-3-one] | 1 to 10 | < 0.1 | 80 to 90 |  |  |
| CCc1ccc2c(C3=NN(CCCCOc4ccc(C5=NNC(=O)C5(C)C)c(F)c4F)C(=O)CC3C)ccc(OC)c2n1 (stereo not drawn) [Example 303, 6-(2-Ethyl-8-methoxyquinolin-5-yl)-5-methyl-2-[4-[2,3-difluoro-4-(4,4-dimethyl-5-oxo-4,5-dihydro-1H-pyrazol-3-yl)phenoxy]butyl]-4,5-dihydro-2H-pyridazin-3-one] | 0.1 to 1 | < 0.1 |  | 80 to 90 |  |
| COc1ccc(-c2ccc(=O)n(CCCCOc3ccc(C4=NNC(=O)CC4)cc3F)n2)c2ccc(C)nc12 [Example 272, 2-[4-[2-Fluoro-4-(6-oxo-1,4,5,6-tetrahydropyridazin-3-yl)phenoxy]butyl}-6-(8-methoxy-2-methylquinolin-5-yl)-2H-pyridazin-3-one] | 0.1 to 1 | < 0.1 |  | 70 to 80 |  |
| CCc1ccc2c(C3=NN(CCOc4ccc(C5=NNC(=O)CC5C)cc4)C(=O)CC3C)ccc(OC)c2n1 (stereo not drawn) [Example 315, 6-(2-Ethyl-8-methoxyquinolin-5-yl)-5-methyl-2-[2-[4-(4-methyl-6-oxo-1,4,5,6-tetrahydropyridazin-3-yl)phenoxy]ethyl]-4,5-dihydro-2H-pyridazin-3-one] | 1 to 10 | < 0.1 |  | 70 to 80 |  |
| CCc1ccc2c(C3=NN(CCCCOc4ccc(C5=NNC(=O)C5(C)C)cc4)C(=O)CC3C)ccc(OC)c2n1 (stereo not drawn) [Example 300, 6-(2-Ethyl-8-methoxyquinolin-5-yl)-5-methyl-2-[4-[4-(4,4-dimethyl-5-oxo-4,5-dihydro-1H-pyrazol-3-yl)phenoxy]butyl]-4,5-dihydro-2H-pyridazin-3-one] | 1 to 10 | < 0.1 |  | 70 to 80 |  |
| COc1ccc(-c2ccc(=O)n(CCCCOc3ccc(C4=NNC(=O)CC4C)c(F)c3F)n2)c2nc(C(F)(F)F)[nH]c12 (stereo not drawn) [Example 279, 2-[4-[2,3-Difluoro-4-(4-methyl-6-oxo-1,4,5,6-tetrahydropyridazin-3-yl)phenoxy]butyl]-6-(4-methoxy-2-trifluoromethyl-1H-benzimidazol-7-yl)-2H-pyridazin-3-one] | < 0.1 | 0.1 to 1 |  | ≥ 90 |  |
